Test results reported in patent US11166924B2, “N-methyl-d-aspartate receptor allosteric modulators and methods for their use” (Qingdao Primedicine Pharmaceutical Company, Ltd., priority 2016, dated 2021).

How the values were obtained:
Type in all cases: cell-based
[1] = target: NMDARs in cultured hippocampal neurons (Rattus norvegicus, UniProt P35439+Q00959); test: Whole-cell voltage clamp recordings of NMDAR currents in cultured hippocampal/cortical neurons; conditions: for Potentiation or depression of NMDAR-currents: tested in a similar fashion as Npam02, FIG. 4c
GluN1/GluN2A NMDARs = target: T1, GluN1/GluN2A NMDARs (Rattus norvegicus, UniProt P35439+Q00959); test: Whole-cell patch clamp recordings in HEK293 cells transfected with GluN1/GluN2A
T1 construct: expressed in transfected cells; host or cells: HEK293
Description: Cells were transfected with a combination of pcDNA3-CMV expression vectors, each of which expressed one of the rat recombinant (GluN2AWT, GluN1WT, GluN2BWT) subunits. The sequences of all plasmids were confirmed by automated DNA sequencing. Human Embryonic Kidney 293 (HEK293 cells) were cultured in Dulbecco's Modified Eagle's Medium (DMEM) (Invitrogen) supplemented with 10% fetal bovine serum (FBS). When HEK293 cells achieved 90% confluence, plasmids of either GluN1 & GluN2A or GluN1 & GluN2B were co-transfected into the cells using Lipofectamine 2000 (Invitrogen, 11668019) according to manufacturer's instructions. HEK293 cells were then maintained in the 37° C. incubator with […] and 5% CO2 for 48 hrs before being used in experiments. The transfection ratios for the NMDAR subunit combinations were all 1:1 (GluN1/GluN2A or GluN1/GluN2B).
Whole cell patch-clamp recordings were performed under voltage-clamp mode using an Axopatch 200B or 1D patch-clamp amplifier (Molecular Devices). Whole-cell currents were recorded at a holding potential of −60 mV unless indicated elsewhere, and signals were filtered at 2 kHz, digitized at 10 kHz (Digidata 1322A). Recording pipettes (3-5 MΩ) were filled with intracellular solution containing (mM): CsCl 140, HEPES 10, Mg-ATP 4, QX-314 5, pH 7.20; osmolarity, 290-295 mOsm. BAPTA (10 mM) was added in the intracellular solution (unless otherwise specified). The coverslips were continuously superfused with extracellular solution containing (mM): NaCl 140, KCl 5.4, HEPES 10, CaCl2 1.3, glucose 20, pH 7.4; osmolarity, 305-315 mOsm. NMDA-induced currents were applied by NMDA through perfusion fast-step (Warner Instruments). With perfusion fast-step system, NMDA application was achieved by using a two-square barrel glass tubing and depending on the age of the cultured neurons, CNQX (10 μM), TTX (0.5 μM) or BIC (10 μM) were added in the extracellular solution to minimize the activation of ionotropic glutamate receptors and voltage-gated sodium channels, respectively. All experiments were performed at room temperature. Recordings from at least six HEK293 cells/neurons were performed for all active compounds. Data were pooled among HEK293 cells or primary neurons and composite dose-response data were fitted by the equation Percentage Response=100×Relative Efficacy/[1+(EC50/Concentration)nH], where EC50 is the concentration of agonist that produces a half-maximal response, relative efficacy is the response at maximally effective concentration relative to the maximal response of glutamate, and nH is the Hill slope.
GluN1/GluN2A NMDAR subtypes are an attractive target for positive allosteric modulation. The present inventors employed in silico computational drug discovery methods to conduct a virtual screen of purchasable lead-like compounds from the ZINC database (Irwin, J., et al. Abstr Pap Am Chem Soc (2005) 230:U1009) and some synthetic compounds to identify potential GluN1/GluN2A-NMDAR modulators. The in silico methods included large-scale docking against the interstice interface of the GluN1/GluN2A heterodimer and consensus scoring to select compounds for empirical testing. Candidate compounds were further screened by using GluN1/GluN2A transiently transfected in human embryonic kidney (HEK293) cells and tested by whole-cell patch clamp recordings.
The inventors used transiently transfected HEK293 cells expressing either GluN1/GluN2A or GluN1/GluN2B NMDARs and tested by whole-cell voltage patch clamp recordings to see whether selected compounds were controlling the subtype selectivity profile of the drugs.
Whole-cell patch clamp recordings were performed to measure glutamate evoked currents with chloride-based pipette solutions at a holding potential of −60 mV.

[2] = target: T2, GluN2A NMDARs in GluN2B-lacking neurons (Mus musculus, UniProt P35436+P35438); test: Whole-cell recordings in GluN2B-knockout cortical neurons; conditions: 0.2 μM with NMDA 20 μM; conditional GluN2B-knockout neurons
T2 construct: endogenous in cells; host or cells: primary cortical neurons from GluN2B-knockout mouse embryos

GluN1/GluN2B NMDARs = target: T3, GluN1/GluN2B NMDARs (Rattus norvegicus, UniProt P35439+Q00960); test: Whole-cell patch clamp recordings in HEK293 cells transfected with GluN1/GluN2B; conditions: HEK293, Table 2, read-out: Normalized Potentiation GluN1/GluN2B
T3 construct: expressed in transfected cells; host or cells: HEK293

[3] = HEK293, Table 2, read-out: Normalized Potentiation GluN1/GluN2A

NMDARs in cultured hippocampal neurons, sequence (Q00959 23-1464, other chains not shown): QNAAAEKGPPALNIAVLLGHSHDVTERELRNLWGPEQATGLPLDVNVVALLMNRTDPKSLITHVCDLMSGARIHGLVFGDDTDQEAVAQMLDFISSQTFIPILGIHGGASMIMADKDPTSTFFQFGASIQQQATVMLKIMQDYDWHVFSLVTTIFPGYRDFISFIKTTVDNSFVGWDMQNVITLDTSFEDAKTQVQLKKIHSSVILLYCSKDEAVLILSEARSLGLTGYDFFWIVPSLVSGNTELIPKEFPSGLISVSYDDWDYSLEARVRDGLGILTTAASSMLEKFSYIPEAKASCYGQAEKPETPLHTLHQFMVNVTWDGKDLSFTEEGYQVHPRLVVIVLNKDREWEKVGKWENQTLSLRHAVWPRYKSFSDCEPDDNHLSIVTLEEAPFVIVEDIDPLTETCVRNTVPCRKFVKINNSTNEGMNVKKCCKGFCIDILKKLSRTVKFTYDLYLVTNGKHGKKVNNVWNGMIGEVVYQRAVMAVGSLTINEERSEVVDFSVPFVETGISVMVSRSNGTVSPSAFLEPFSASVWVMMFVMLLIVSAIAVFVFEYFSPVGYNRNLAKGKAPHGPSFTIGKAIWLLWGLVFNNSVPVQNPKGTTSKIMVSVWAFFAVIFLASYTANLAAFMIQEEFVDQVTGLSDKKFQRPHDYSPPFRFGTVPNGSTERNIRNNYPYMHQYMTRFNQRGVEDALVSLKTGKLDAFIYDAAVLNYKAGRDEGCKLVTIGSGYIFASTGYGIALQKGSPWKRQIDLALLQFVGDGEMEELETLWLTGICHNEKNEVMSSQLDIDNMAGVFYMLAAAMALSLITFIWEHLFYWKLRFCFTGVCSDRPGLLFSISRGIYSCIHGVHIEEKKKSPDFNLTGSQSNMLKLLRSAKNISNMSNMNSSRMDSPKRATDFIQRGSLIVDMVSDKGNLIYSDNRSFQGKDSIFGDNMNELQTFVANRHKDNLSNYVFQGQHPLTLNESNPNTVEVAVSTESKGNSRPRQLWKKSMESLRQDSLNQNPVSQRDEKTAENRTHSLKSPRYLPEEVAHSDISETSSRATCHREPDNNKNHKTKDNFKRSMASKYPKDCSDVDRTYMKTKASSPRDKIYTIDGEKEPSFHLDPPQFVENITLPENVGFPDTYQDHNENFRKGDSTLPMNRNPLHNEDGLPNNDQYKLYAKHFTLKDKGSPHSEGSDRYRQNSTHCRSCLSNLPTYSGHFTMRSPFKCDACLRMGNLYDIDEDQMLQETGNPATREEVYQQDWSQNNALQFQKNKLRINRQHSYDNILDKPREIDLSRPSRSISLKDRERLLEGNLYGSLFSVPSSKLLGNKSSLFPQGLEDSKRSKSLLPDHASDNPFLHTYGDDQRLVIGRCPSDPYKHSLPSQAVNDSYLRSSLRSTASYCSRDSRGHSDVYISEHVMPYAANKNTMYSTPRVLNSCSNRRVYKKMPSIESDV
T1 sequence (Q00959 23-1464, other chains not shown): as above
T3 sequence (Q00960 27-1482, other chains not shown): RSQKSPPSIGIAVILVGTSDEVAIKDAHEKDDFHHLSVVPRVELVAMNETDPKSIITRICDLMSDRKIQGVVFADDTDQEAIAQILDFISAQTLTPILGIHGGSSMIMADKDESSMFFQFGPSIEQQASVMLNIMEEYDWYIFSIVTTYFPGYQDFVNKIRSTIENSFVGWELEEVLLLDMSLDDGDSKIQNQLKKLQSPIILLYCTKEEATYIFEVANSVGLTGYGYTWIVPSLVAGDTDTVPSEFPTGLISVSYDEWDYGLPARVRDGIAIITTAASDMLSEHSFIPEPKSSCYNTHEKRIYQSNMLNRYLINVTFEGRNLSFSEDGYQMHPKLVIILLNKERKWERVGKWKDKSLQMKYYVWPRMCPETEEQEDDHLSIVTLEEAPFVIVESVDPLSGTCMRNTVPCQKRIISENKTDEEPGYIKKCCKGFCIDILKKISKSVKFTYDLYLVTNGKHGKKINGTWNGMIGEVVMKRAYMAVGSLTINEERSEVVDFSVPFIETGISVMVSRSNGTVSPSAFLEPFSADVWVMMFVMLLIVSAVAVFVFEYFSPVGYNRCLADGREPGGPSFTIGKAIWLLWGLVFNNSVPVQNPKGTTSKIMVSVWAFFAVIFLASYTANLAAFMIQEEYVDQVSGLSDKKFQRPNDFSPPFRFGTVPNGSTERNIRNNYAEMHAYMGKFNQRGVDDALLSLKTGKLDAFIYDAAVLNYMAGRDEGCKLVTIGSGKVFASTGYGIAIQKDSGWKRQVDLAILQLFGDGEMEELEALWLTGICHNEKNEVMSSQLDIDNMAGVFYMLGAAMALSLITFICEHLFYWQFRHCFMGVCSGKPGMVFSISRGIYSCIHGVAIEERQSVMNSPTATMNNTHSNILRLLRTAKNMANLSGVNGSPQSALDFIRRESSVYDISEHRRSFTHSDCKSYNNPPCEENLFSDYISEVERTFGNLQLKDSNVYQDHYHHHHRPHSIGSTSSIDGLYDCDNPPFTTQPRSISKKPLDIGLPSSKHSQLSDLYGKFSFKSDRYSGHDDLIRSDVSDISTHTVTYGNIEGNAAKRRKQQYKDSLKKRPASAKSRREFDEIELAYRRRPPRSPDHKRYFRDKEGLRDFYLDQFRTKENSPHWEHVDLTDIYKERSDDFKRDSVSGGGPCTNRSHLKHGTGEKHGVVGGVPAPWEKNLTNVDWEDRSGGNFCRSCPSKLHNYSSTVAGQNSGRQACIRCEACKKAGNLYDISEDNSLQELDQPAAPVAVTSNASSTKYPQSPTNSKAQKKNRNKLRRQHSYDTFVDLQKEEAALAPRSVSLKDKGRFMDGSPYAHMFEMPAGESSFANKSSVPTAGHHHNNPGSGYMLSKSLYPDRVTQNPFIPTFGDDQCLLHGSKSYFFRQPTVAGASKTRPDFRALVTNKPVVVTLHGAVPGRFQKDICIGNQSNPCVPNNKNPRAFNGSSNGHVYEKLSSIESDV

N[C@@H](CCCP(=O)(O)O)C(=O)O [APV, reference compound]
Block of currents ([1]; 50 μM): blocked all currents

CN[C@H](CC(=O)O)C(=O)O [NMDA, reference compound]
pEC50 of NMDA dose-response curve ([1]; cultured hippocampal neurons, FIG. 13): 1.484±0.082 μM
EC50 ([1]; cultured hippocampal neurons, FIG. 13, read-out: EC50 of NMDA dose-response curve): 30.5 ± 11.7 µM

C[C@H](NC(c1cccc2[nH]c(=O)c(=O)[nH]c12)P(=O)(O)O)c1ccc(Br)cc1 (stereo partly shown) [NVP-AAM007, reference compound]
Block of the Npam02-increased NMDAR currents (GluN1/GluN2A NMDARs; 0.2 μM co-applied with both co-agonists): completely blocked
Block of NMDAR-currents [2]: 90.73±1.11%

O=C(N/N=C/c1cccc(O)c1O)c1ccccc1 [Npam01, (E)-N′-(2,3-dihydroxybenzylidene)benzohydrazide]
activation at 100 µM (GluN1/GluN2A NMDARs; [3]): 26.2 ± 2.24%
Normalized Potentiation (GluN1/GluN2A NMDARs; Table 1, positive modulation of GluN1/GluN2A NMDARs, concentration not given): 2.61 ± 9.69%
Potentiation or depression of NMDAR-currents [1]: no observable potentiation or depression effect
activation at 100 µM (GluN1/GluN2B NMDARs): -28 ± 5.11%

Cc1ccccc1C(=O)N/N=C/c1cccc(O)c1O [Npam04, (E)-N′-(2,3-dihydroxybenzylidene)-2-methylbenzohydrazide]
activation at 100 µM (GluN1/GluN2A NMDARs; [3]): 33.7 ± 4.84%
Potentiation or depression of NMDAR-currents [1]: no observable potentiation or depression effect
activation at 100 µM (GluN1/GluN2B NMDARs): -54.6 ± 5.48%

COc1cc([N+](=O)[O-])cc(/C=N/NC(=O)c2ccccc2C)c1O [Npam72, (E)-N′-(2-hydroxy-3-methoxy-5-nitrobenzylidene)-2-methylbenzohydrazide]
Selectivity for GluN1/GluN2A versus GluN1/GluN2B NMDARs (GluN1/GluN2A NMDARs; FIG. 2, HEK293 cells expressing GluN1/GluN2A and GluN1/GluN2B): selective for GluN1/GluN2A NMDARs
activation at 100 µM (GluN1/GluN2A NMDARs; [3]): 118 ± 18.5%
activation at 100 µM (GluN1/GluN2B NMDARs): -24.2 ± 4.55%

O=C(N/N=C/c1cccc(O)c1O)c1ccc(Br)cc1 [Npam73, (E)-4-bromo-N′-(2,3-dihydroxybenzylidene)benzohydrazide]
activation at 50 µM (GluN1/GluN2A NMDARs; HEK293, Table 2, 50 μM (footnote *), read-out: Normalized Potentiation GluN1/GluN2A): 30.7 ± 4.76%
activation at 50 µM (GluN1/GluN2B NMDARs; 50 μM (footnote *)): -49.9 ± 6.87%

COc1cc(Cl)cc(/C=N/NC(=O)c2ccccc2Br)c1O [Npam75, (E)-2-bromo-N′-(5-chloro-2-hydroxy-3-methoxybenzylidene)benzohydrazide]
activation at 100 µM (GluN1/GluN2A NMDARs; [3]): 57.2 ± 3.78%
activation at 100 µM (GluN1/GluN2B NMDARs): -17 ± 2.14%
